# Measurements published in the supplement of paper PMC10307832.
# How the values were obtained:
# Assay in all cases: relative viability (nuclei count vs DMSO), 5 days (fraction); higher = more cells survive
# [1] = compound: COc1cc(-c2nn([C@H]3CC[C@H](N4CCN(C(C)=O)CC4)CC3)c3ncnc(N)c23)ccc1NC(=O)c1cc2ccccc2n1C + COc1cccc2cc(-c3nc([C@H]4CC[C@H](C(=O)O)CC4)n4ncnc(N)c34)[nH]c12 [OSI-027] (partner 0.5 µM)
# Outline: (§1)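 Relative viability is defined as nuclei in treated wells over nuclei in vehicle wells. Duplicate plates were run and medians reported. Lung cancer cell lines in 1536-well plates were dosed by pin tool one day after seeding, with one drug or with a fixed anchor-drug dose plus five library-drug doses (not always all listed) in √10 steps, and nuclei were counted after 5 days.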
# [2] = compound: COc1cc(-c2nn([C@H]3CC[C@H](N4CCN(C(C)=O)CC4)CC3)c3ncnc(N)c23)ccc1NC(=O)c1cc2ccccc2n1C + Nc1ncn([C@H]2C[C@H](O)[C@@H](CO)O2)c(=O)n1 [Decitabine] (partner 2 µM)
# Outline: as §1
# [3] = compound: COc1cc(-c2nn([C@H]3CC[C@H](N4CCN(C(C)=O)CC4)CC3)c3ncnc(N)c23)ccc1NC(=O)c1cc2ccccc2n1C + C[C@@H](Oc1cc(-c2cnn(C3CCNCC3)c2)cnc1N)c1c(Cl)ccc(F)c1Cl [Crizotinib] (partner 1 µM)
# Outline: as §1
# [4] = compound: COc1cc(-c2nn([C@H]3CC[C@H](N4CCN(C(C)=O)CC4)CC3)c3ncnc(N)c23)ccc1NC(=O)c1cc2ccccc2n1C + Nc1nc2[nH]cc(CCc3ccc(C(=O)N[C@@H](CCC(=O)O)C(=O)O)cc3)c2c(=O)[nH]1 [Pemetrexed] (partner 0.2 µM)
# Outline: as §1
# [5] = compound: COc1cc(-c2nn([C@H]3CC[C@H](N4CCN(C(C)=O)CC4)CC3)c3ncnc(N)c23)ccc1NC(=O)c1cc2ccccc2n1C + CC1(C)CCC(c2ccc(Cl)cc2)=C(CN2CCN(c3ccc(C(=O)NS(=O)(=O)c4ccc(N[C@H](CCN5CCOCC5)CSc5ccccc5)c(S(=O)(=O)C(F)(F)F)c4)cc3)CC2)C1 [Navitoclax] (partner 0.5 µM)
# Outline: as §1
Cell Line,relative viability ([1]; first compound 0.0128 µM),relative viability ([1]; first compound 0.04048 µM),relative viability ([1]; first compound 0.128 µM),relative viability ([1]; first compound 1.28 µM),relative viability ([2]; first compound 0.0128 µM),relative viability ([2]; first compound 0.04048 µM),relative viability ([2]; first compound 0.128 µM),relative viability ([2]; first compound 1.28 µM),relative viability ([3]; first compound 0.0128 µM),relative viability ([3]; first compound 0.04048 µM),relative viability ([3]; first compound 0.128 µM),relative viability ([3]; first compound 1.28 µM),relative viability ([4]; first compound 0.0128 µM),relative viability ([4]; first compound 0.04048 µM),relative viability ([4]; first compound 0.128 µM),relative viability ([4]; first compound 1.28 µM),relative viability ([5]; first compound 0.0128 µM),relative viability ([5]; first compound 0.04048 µM),relative viability ([5]; first compound 0.128 µM),relative viability ([5]; first compound 1.28 µM)
EMC-BAC-2,0.347,0.531,0.385,0.352,1,0.941,0.913,0.955,0.759,0.848,0.731,0.532,0.445,0.557,0.426,0.493,1.19,1.08,1.15,1.05
NCI-H2405,0.679,0.465,0.633,0.324,0.861,0.55,0.657,0.362,0.827,–,0.733,0.442,1.02,0.698,0.991,0.426,0.744,0.639,0.729,0.265
NCI-H1944,0.457,0.332,0.412,0.353,0.483,0.371,0.456,0.451,1.12,1.14,1.02,0.787,0.65,0.589,0.571,0.6,1.04,0.999,0.982,0.764
EPLC-272H,0.27,–,0.293,0.264,0.444,0.315,0.342,0.312,0.974,0.924,0.984,0.701,0.406,0.338,0.287,0.253,1.13,1.05,0.983,0.871
NCI-H1915,0.677,0.404,0.585,0.481,0.293,0.244,0.264,0.262,0.87,0.942,0.866,0.869,0.536,0.452,0.488,0.5,0.851,0.755,0.758,0.706
NCI-H596,0.681,0.526,0.641,0.441,1.33,1.18,0.89,0.716,0.943,1.2,1.01,0.64,0.494,0.536,0.517,0.431,1.06,1.02,0.911,0.525
NCI-H322M,0.584,0.509,0.5,0.526,0.659,0.682,0.648,0.63,0.999,0.871,0.767,0.878,0.603,0.643,0.604,0.538,1.36,1.09,1.18,1.12
NCI-H647,0.594,0.656,0.617,0.435,0.451,0.424,0.406,0.364,1.03,0.858,0.886,0.541,0.19,0.154,0.172,0.164,1.29,1.18,1.06,0.669
SK-MES-1,0.685,0.665,0.583,0.562,0.384,0.368,0.454,0.355,1.02,1.04,0.869,0.971,1.08,0.994,0.904,0.755,1.37,1.39,1.14,1.15
NCI-H2170,0.81,0.468,0.701,0.687,0.533,0.53,0.479,0.471,1.3,1.13,1.2,0.923,0.267,0.275,0.296,0.253,0.652,0.749,0.579,0.453
NCI-H2085,0.716,0.593,0.774,0.519,0.579,0.436,0.58,0.553,0.86,0.912,0.977,0.695,0.915,0.86,0.81,0.539,1.16,1.23,1.19,1.01
SW 1573,0.68,0.691,0.624,0.466,0.527,0.446,0.491,0.366,0.775,0.703,0.636,0.652,0.862,0.754,0.885,0.759,0.817,1.02,1.02,0.716
NCI-H441,0.637,0.531,0.763,0.702,0.246,0.286,0.321,0.24,0.841,0.621,0.655,0.705,0.275,0.306,0.254,0.295,0.868,0.798,0.91,0.581
LOU-NH91,0.729,0.803,0.731,0.745,0.792,0.898,0.842,0.804,0.745,0.811,0.753,0.638,0.395,0.348,0.363,0.433,0.658,0.661,0.768,0.638
NCI-H3122,0.992,0.333,0.969,0.847,0.44,–,0.447,0.318,0.289,–,0.269,0.229,0.19,–,0.201,0.194,1.03,–,1.01,0.869
